Data taken from patent publication EP4613273A1, “TREATMENT OF BONE LOSS” (priority 2024, dated 2025).
Counter-ions that a name gives are not always drawn.

How the values were obtained:
[1] = test system: dogs with alveolar bone loss induced by spontaneously developed periodontal disease; test: Periodontal parameter assessment (CAL, PPD, bleeding) in dogs with periodontal disease; type: in vivo; conditions: CTX-1 responders; Day-90 vs Day-0
Protocol: (§1) The present study was performed on 10 Beagle dogs suffering from alveolar bone loss induced by spontaneously developed periodontal disease. All dogs were treated with MIV-701 besylate salt for minimum 30 day and maximum 90 days, depending on the tolerance at intermediate visits. The product is administrated to the dog by its owner at home, once a day with a meal.
(§2) There were two treatment groups: • Group A (5 dogs) with a dose of 25 mg/kg. • Group B (5 dogs) with a dose of 50 mg/kg.
The examination was performed at visit V2 (Day 0) and visit V5 (90t 3 days).
At visit V2 (Day 0) and V5 (90 ± 3 days). the Investigator evaluated the following parameters for each tooth: • Periodontal probing depth (PPD) - measured as the distance from the gingival margin to the bottom of the pocket using a graduated periodontal probe of Investigator's choice. The sulcus/pocket was measured circumferentially around the whole tooth and valued of 3 to 6 places, depending on the tooth localization (Figure 11). Measurements was done in millimeters (mm) and rounded to the nearest lower value. The mean PPD value of these measurements per tooth was calculated. • Clinical attachment loss (CAL) - measured as the distance from the cemento-enamel-junction to the bottom of the pocket using a periodontal probe of the Investigator choice. CAL was measured in 3 to 6 sites per tooth depending on the tooth localization (Figure 11). Measurements was done in millimeters (mm) and rounded to the nearest lower value (Kortegaard et al. 2014). The mean CAL value of these measurements per tooth will be calculated. • Bleeding Probing Index - assessed at each site of PPD and CAL measurement. Depending on the absence or presence of bleeding within 10 second following probing of the tooth, BPI scored either as 0 or 1 respectively. The mean BIP value was calculated per tooth.
At visit V5 (90t 3 days), the Investigator assessed PPD, CAL and BoP in only 3 selected teeth for the study and recorded it in PERIODONTAL PARAMETERS FORM.

[2] = test system: dogs with alveolar bone loss induced by spontaneously developed periodontal disease; test: Alveolar bone loss parameters by CBCT-scan and X-ray radiography in dogs with periodontal disease; type: in vivo; conditions: CTX-1 responders, Day-90 vs Day-0
Protocol: as §1, §2
Dental imaging was performed at visit V2 (Day 0) and visit V5 (90t 3 days).
Each time a full mouth CBCT-scan was performed together with dental radiographs of selected teeth for the study. The results of these exams were recorded in IMAGING FORM by the Investigator.
Full mouth cone-beam computed tomography (NewTom, 5G XL, Bologna, Italy) was performed at visit V2 (Day 0) and visit V5 (Day 90t 3 days).
The exam was performed only in dogs recruited in Polish site. It was performed under general anesthesia of Investigator's choice and aim at alveolar bone loss measurement.
Scans were analyzed with the use of NNT viewer, software provided by the manufacturer (version: 10.1; QR SRL, Verona, Italy). At both times, the volumetric assessment of dentition was set up for the same high-resolution mode (10 × 10 cm with 0.15 mm layers). Both readings were made in the same orientations of axes and locations measuring alveolar bone loss with the use of maximum magnification (Gawro, Strøm et Nemec 2022). To evaluate the effect of the treatment on the alveolar bone loss, the following three measurements (De Faria Vasconcelos et al. 2012) were performed on the selected teeth for the study: • 1. The height of the alveolar crest (AC), measured from the cementoenamel junction (CEJ) to the upper rim of AC (Figure 12A). • 2. The depth of the defect, measured from the CEJ to the bottom of the defect (Figure 12B). • 3. The width of the defect, measured from the highest point of the AC to the dental root adjacent to the defect (Figure 12C).
Dental radiography was performed at visit V2 (Day 0) and visit V5 (Day 90t 3 days).
To evaluate the effect of the treatment on the alveolar bone loss, the following three measurements (De Faria Vasconcelos et al. 2012) were performed on the selected teeth for the study: • 1. The heigh of the alveolar crest (AC), measured from the cementoenamel junction (CEJ) to the upper rim of AC (Figure 13A). • 2. The depth of the defect, measured from the CEJ to the bottom of the defect (Figure 13B). • 3. The width of the defect, measured from the highest point of the AC to the dental root adjacent to the defect (Figure 13C).
These measurements were performed using digital ruler of the imaging software or external program (i.e., Image J) and recorded in the IMAGING FORM.

CC(C)C[C@H](NC(=O)c1ccc(-c2csc(N3CCN(C)CC3)n2)cc1)C(=O)N1C[C@H](F)[C@H]2OCC(O)(O)[C@H]21 [MIV-701 besylate salt, N-[(S)-1-((3aS,6S,6aS)-6-Fluoro-S-oxo-hexahydro-furo[3,2-b]pyrrole-4-carbony)-3-methyl-butyl]-4-[2-(4-methyl-piperazin-1-yl)-thiazol-4-yl]-benzamide benzenesulphonate]
Clinical Attachment Loss (CAL) [1]: significantly improved | Gingival Bleeding Index (GBI) [1]: not modified | Periodontal Probing Depth (PPD) [1]: significantly improved | depth of the alveolar bone defect ([2]; CBCT-images): Only favorable trends | width of the alveolar bone defect ([2]; CBCT-scan and X-ray radiography): significantly reduced | height of the alveolar crest ([2]; CBCT-scan images): Significant improvements | depth of the alveolar bone loss ([2]; X-ray images): significant improvements | height of the alveolar crest ([2]; X-ray radiography): only favorable trends
